Data published in patent US3966739A, “Pyrrole-carboxylic acids lumilysergol esters” (Societa' Farmaceutici Italia S.p.A., priority 1971, dated 1976).
≈ marks a conversion by molar mass, not a printed value. Counter-ions that a name gives are not always drawn. Like-named read-outs stand apart in the source and are kept apart here.

What was measured:
[1] = system: spasmogen action of adrenaline on isolated seminal small bladder; assay: adrenolytic activity on isolated seminal small bladder of guinea-pig (inhibition of spasmogen action of adrenaline); type: cell-based; details: Cavia porcellus; isolated seminal small bladder of guinea-pig suspended in physiologic solution; read-out: concentrations inhibiting 50% of the spasmogen action of adrenaline (IC50)
Excerpt: The adrenolytic activity of the compounds of the invention has been tested by employing dihydroergotamine as a comparison compound. Particularly, it has been determined on the isolated seminal small bladder of guinea-pig suspended in physiologic solution.
Table I reports the concentrations inhibiting 50% of the spasmogen action of adrenaline (IC50).

[2] = system: lethal effects of adrenaline; assay: adrenolytic activity in vivo in the rat (reduction of lethal effects of adrenaline)
Excerpt: The same activity, in vivo, has been determined in the rat. Table II reports the doses ID50 (in mg/kg) capable of reducing 50% of the lethal effects of adrenaline by intravenous administration (i.v.) and oral administration (os) of the compounds under examination.

[3] = intravenous administration (i.v.), read-out: ID50 (i.v.): dose reducing 50% of the lethal effects of adrenaline
[4] = oral administration (os), read-out: ID50 (os): dose reducing 50% of the lethal effects of adrenaline

Row | SMILES | IC50 [1] [µg/mL] | ED50 [2, 3] [mg/kg] | ED50 [2, 4] [mg/kg]
1 | CO[C@]12C[C@@H](COC(=O)c3cccn3C)CN(C)[C@@H]1Cc1cn(C)c3cccc2c13 [1,6-dimethyl-8β-[2'-(N-methyl)-pyrroyloxymethyl]-10α-methoxyergoline] | 0.005 (≈ 0.0123 µM) | 0.025 | 1
2 | CO[C@]12C[C@@H](COC(=O)c3[nH]c(C)c(Br)c3C)CN(C)[C@@H]1Cc1cn(C)c3cccc2c13 [1,6-Dimethyl-8β-[3', 5'-dimethyl-4'-bromo-2'-pyrroyloxymethyl]-10α-methoxyergoline] | 0.1 (≈ 0.2 µM) | > 1 | 0.5
3 | CN1C[C@H](C(=O)N[C@]2(C)O[C@@]3(O)[C@@H]4CCCN4C(=O)[C@H](Cc4ccccc4)N3C2=O)C[C@@H]2c3cccc4[nH]cc(c34)C[C@H]21 [Dihydroergotamine, reference compound] | 0.015 (≈ 0.0257 µM) | 0.08 | 15
4 | CO[C@]12C[C@@H](COC(=O)c3ccc[nH]3)CN(C)[C@@H]1Cc1cn(C)c3cccc2c13 [1,6-Dimethyl-8β-(2'-pyrroyloxymethyl)-10α-methoxyergoline] | 0.005 (≈ 0.0127 µM) | 0.005 | 0.5
5 | CO[C@]12C[C@@H](COC(=O)c3[nH]c(C)cc3C)CN(C)[C@@H]1Cc1cn(C)c3cccc2c13 [1,6-Dimethyl-8β-(3',5'-dimethyl-2'-pyrroyloxymethyl)-10α-methoxyergoline] | 0.05 (≈ 0.119 µM) | 0.065 | 0.1
6 | CO[C@]12C[C@@H](COC(=O)c3c(C)c[nH]c3C)CN(C)[C@@H]1Cc1cn(C)c3cccc2c13 [1,6-Dimethyl-8β-[2', 4'-dimethyl-3'-pyrroyloxymethyl]-10α-methoxyergoline] | 0.07 (≈ 0.166 µM) | 0.1 | 0.7
7 | CO[C@]12C[C@@H](COC(=O)c3c(C)cc(C)n3C)CN(C)[C@@H]1Cc1cn(C)c3cccc2c13 [1,6-Dimethyl-8β-[1', 3',5'-trimethyl-2'-pyrroyloxymethyl]-10α-methoxyergoline maleate] | 0.01 | 0.25 | 0.2
8 | COc1c[nH]cc1C(=O)OC[C@H]1CN(C)[C@@H]2Cc3cn(C)c4cccc(c34)[C@@]2(OC)C1 [1,6-Dimethyl-8β-[4'-methoxy-3'-pyrroyloxymethyl]-10α-methoxyergoline] | 0.1 (≈ 0.236 µM) | 0.075 | 0.3
9 | CCOC(=O)c1c(C)[nH]c(C(=O)OC[C@H]2CN(C)[C@@H]3Cc4cn(C)c5cccc(c45)[C@@]3(OC)C2)c1C [1,6-Dimethyl-8β-[3', 5'-dimethyl-4'-carbethoxy-2'-pyrroyloxymethyl]-10α-methoxyergoline] | 1 (≈ 2.03 µM) | > 0.1 | 2.5
10 | CO[C@]12C[C@@H](COC(=O)c3cc[nH]c3C)CN(C)[C@@H]1Cc1cn(C)c3cccc2c13 [1,6-Dimethyl-8β-[2'-methyl-3'-pyrroyloxymethyl]-10α-methoxyergoline] | 0.05 (≈ 0.123 µM) | 0.05 | 0.25
11 | CO[C@]12C[C@@H](COC(=O)c3cc[nH]c3)CN(C)[C@@H]1Cc1cn(C)c3cccc2c13 [1,6-Dimethyl-8β-(3'-pyrroyloxymethyl)-10α-methoxyergoline] | 0.005 (≈ 0.0127 µM) | 0.05 | 0.5
